{
  "source": "patent US10806785B2",
  "about": "“Immunomodulator compounds and methods of use” (Incyte Corporation, priority 2016, dated 2020)",
  "molecular_target": "PD-1/PD-L1 (Homo sapiens (Human), UniProt Q9NZQ7)",
  "sequence (Q9NZQ7 19-238)": "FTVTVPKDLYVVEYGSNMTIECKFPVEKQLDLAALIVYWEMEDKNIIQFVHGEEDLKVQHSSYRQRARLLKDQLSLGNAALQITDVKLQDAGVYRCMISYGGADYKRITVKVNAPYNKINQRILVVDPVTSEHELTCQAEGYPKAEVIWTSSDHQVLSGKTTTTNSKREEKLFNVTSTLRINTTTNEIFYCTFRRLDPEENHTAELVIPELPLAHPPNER",
  "test": "PD-1/PD-L1 binding assay (Alphascreen)",
  "method": "Binding assays were conducted in a low volume white 384-well polystyrene plate in a final volume of 20 μL. Compounds to be analyzed were first serially diluted in DMSO and added to the plate wells before the addition of other reaction components. The final concentration of DMSO in the assay was 1%. The assay was carried out at 25° C. in the PBS buffer (pH 7.4) with 0.05% Tween-20 and 0.1% BSA. Recombinant human PD-L1 protein (19-238) with a His-tag at the C-terminus was purchased from AcroBiosystems (PD1-H5229). Recombinant human PD-1 protein (25-167) with Fc tag at the C-terminus was also from AcroBiosystems (PD1-H5257). PD-L1 and PD-1 proteins were diluted in the assay buffer (final concentration −0.67 and 0.20 nM respectively) and 10 μL was added to the plate well. Plates were centrifuged and proteins were preincubated with compounds for 40 minutes. The incubation was followed by the addition of 10 μL of assay buffer supplemented with Alphascreen Ni chelate donor beads (PerkinElmer-AS101D) and Protein A Acceptor beads (PerkinElmer-6760137) at final concentration 2.5 μg/mL under reduced light. After plate sealing, the plate was incubated in the dark at room temperature for 120 minutes before reading on a PHERAstar FS plate reader (BMG Labtech). […]",
  "note": "Residues, ends and D or L forms follow the SMILES beside them.",
  "data": [
    {"smiles": "CCCC[C@H]1C(=O)N(C)CC(=O)N[C@@H](CC(=O)O)C(=O)N[C@@H](C(C)C)C(=O)N(C)[C@@H](Cc2ccccc2)C(=O)N[C@@H](Cc2ccc(O)cc2)C(=O)N(C)CC(=O)N[C@@H](Cc2c[nH]c3ccccc23)C(=O)N[C@@H](Cc2ccc(O)cc2)C(=O)N[C@@H](CC(C)C)C(=O)N[C@H](C(=O)NCC(N)=O)CSCC(=O)N[C@@H](Cc2ccccc2)C(=O)N(C)[C@@H](Cc2ccccc2)C(=O)N1C", "note": "[Cpd 27] (HELM PEPTIDE1{[O=C(C[*:3])[*:2]].F.[meF].[CCCC[C@@H](C(=O)[*:2])N(C)[*:1]].[Sar].D.V.[meF].Y.[Sar].W.Y.L.C.G.[am]}$PEPTIDE1,PEPTIDE1,1:R3-14:R3$$$V2.0)", "values": [
      {"measurement": "IC50", "value": "> 1", "unit": "nM"}
    ]}
  ]
}
